EC50, IC50 and outcome data for 49 molecules are collected here from PubChem BioAssay AID179 (DTP/NCI, 2004).

The structures appear in SMILES notation. The source made the active and inactive calls.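 How the source made its calls: active means compounds giving half or more protection of infected cells from virus-caused growth loss, again on retest; inactive means the rest.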 Where a SMILES comes first, the peptide text is derived from it. [ ]: non-standard residue; d: D form. The star is where a group is joined. mTyr = N[CH](Cc1cccc(O)c1)C(=O)O; Cbz = O=C(OCc1ccccc1)*; OBn = c1ccc(CO*)cc1

For the assay, the system named is CEM cells HIV-1 protection, formazan growth assay. Put plainly: NCI AIDS Antiviral Assay. The conditions noted are these: for IC50: measured here: growth of uninfected CEM cells. In short, it runs like this: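 Screen of anti-HIV-1 activity in human CEM cells using a formazan-based growth measurement at five drug concentrations. Hits with 50% or greater protection were repeated, and confirmation required reproducible complete protection.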

The EC50 is the concentration needed to bring the measured effect to its halfway point. As usually defined, the IC50 is the midpoint of a concentration-inhibition curve. Read a low IC50 as greater potency.

For `COC(=O)C(Cc1cccc(O)c1)NC(=O)C(CC(=O)OCc1ccccc1)NC(=O)OCc1ccccc1` (stereo not drawn) (Cbz-Asp(OBn)-[mTyr]-OMe; configuration not given here), the EC50 is more than 200 µM and the concentration for half-maximal inhibition (IC50) was 91.2 µM. In the case of `Cc1ccc(C)c(N2C(=O)C(=O)C(c3nc4ccccc4o3)/C(=N/N)C2=O)c1` (stereo not drawn), the outcome was inactive. As for `CN=C(Nn1cnnc1)OC`, the EC50 was more than 200 µM and the IC50 was more than 200 µM. Take `COC(=O)[C@@H]1C[C@H]([Se]c2ccccc2)CN1C(=O)OCc1ccccc1`: the outcome was inactive. As to `COC(=O)c1cc(C(=Cc2c(F)c(F)c(F)c(F)c2F)c2cc(Cl)c(OC)c(C(=O)OC)c2)cc(Cl)c1OC`, the EC50 is more than 17.4 µM and the IC50 was more than 17.4 µM. As to `NS(=O)(=O)c1ccc(Nc2c3ccccc3nc3c(C(=O)N4CCN(CCO)CC4)cccc23)cc1`, the EC50 was more than 43.7 µM and the IC50 is more than 43.7 µM. In the case of `O=[N+]([O-])c1ccc(-c2cn3nc(-c4ccccc4)c(-c4ccccc4)nc3n2)cc1`, the EC50 was more than 13.2 µM and the IC50 is more than 13.2 µM. As to `COc1cccc(/C(C=O)=C(\Cl)c2ccc(OC)c(OC)c2)c1`, the EC50 is more than 21.9 µM and the IC50 came out at 11.5 µM. For the molecule `CCOC(=O)C#CCC/C=C(\C)COC1CCCCO1` (stereo not drawn), the outcome was inactive.

Consider `CC(=O)OCC1OC(n2c(-c3ccccc3)c(N=Nc3ccccc3)c(C)c(C#N)c2=S)C(OC(C)=O)C(OC(C)=O)C1OC(C)=O` (stereo not drawn), for which the EC50 was more than 200 µM and the IC50 is more than 200 µM. For `COc1ccc(Nc2cc(=O)[nH]c(=O)[nH]2)cc1`, the EC50 is more than 200 µM and the IC50 is more than 200 µM. `Cc1cc(S(=O)(=O)Nc2nc(N)nc(N(C)C)n2)c(SC(C(=O)O)c2ccccc2)cc1Cl` (stereo not drawn): the EC50 was 85.1 µM and the IC50 was more than 200 µM. In the same order, the values of `CN(CC#N)C1CCC[C@]1(O)/C=C/[Si](C)(C)C` (stereo partly drawn) are more than 102 µM and more than 102 µM. With `COc1cc(/C=C(\C#N)c2ccccc2)cc(OC)c1`, the EC50 was more than 19.5 µM and the IC50 was more than 19.5 µM. In the case of `O=C(/C=C/c1ccccc1)Oc1cccc(Br)c1`, the EC50 is more than 200 µM and the half-inhibitory concentration (IC50) was 17.8 µM. In the same order, the values of `[N-]=[N+]=Nc1ccc2c(c1)Sc1ccccc1N2CCCCN1CCN(C(=O)CCNC(=O)Cc2ccc(C(=O)c3ccccc3)cc2)CC1` are more than 200 µM and 3.89 µM. In the same order, the values of `CCNc1nc2ccccc2nc1NCC` are more than 200 µM and more than 200 µM.

Regarding `O=S(=O)(O)c1ccc(O)c(N=Nc2ccc(/C=C/c3ccc(N=Nc4cc(S(=O)(=O)O)ccc4O)cc3S(=O)(=O)O)c(S(=O)(=O)O)c2)c1`, the EC50 was more than 200 µM and the IC50 stood at 126 µM. The corresponding values for `CC(=O)Nc1ccc2cc(-c3ccc(Cl)cc3)c3nnnn3c2n1` are more than 200 µM and more than 200 µM. The corresponding values for `Cc1ccccc1C1=C(C(=O)Nc2ccc(Cl)c(Cl)c2)NC(=S)NC1N` (stereo not drawn) are more than 617 µM and more than 617 µM. The corresponding values for `N=C(N)N1CCc2ccccc2C1` are more than 200 µM and more than 200 µM. Take `C=C1CC2(CCOc3ccc(Cl)cc32)OC1=O` (stereo not drawn): the EC50 was more than 372 µM and the IC50 came to 0.977 µM. The corresponding values for `O=C(/C=C/c1ccccc1)NC1C=Nc2ccc([N+](=O)[O-])cc2NC1=O` (stereo not drawn) are more than 102 µM and 93.3 µM. With `CC(=O)c1c2c(cc3c1CC1(C3)Cc3cc4c(c(C(=O)O)c3C1)CCC4)CCC2` (stereo not drawn), the EC50 was more than 18.6 µM and the IC50 was more than 18.6 µM. Consider `Cc1nc(-n2nc(-c3ccccc3)cc2-c2ccccc2)sc1C(=O)CC(=O)C(=O)Nc1ccc(O)cc1`, for which the EC50 was more than 347 µM and the IC50 is more than 347 µM. Consider `CCOC(=O)/C=C/CCC(C)(C)COC(C)=O`, for which the result was inactive. `N#CCCN(CCCN(CCCN(C(=O)Nc1ccccc1)c1ccccc1)C(=O)Nc1ccccc1)C(=O)Nc1ccccc1`: the EC50 was more than 200 µM and the IC50 was 87.1 µM. The corresponding values for `NCCCCC(NC(=O)C(CO)NC(=O)C(N)Cc1cnc[nH]1)C(=O)NC(Cc1ccccc1)C(=O)NC(Cc1c[nH]c2ccccc12)C(=O)NC(Cc1c[nH]c2ccccc12)C(N)=O` (stereo not drawn) (H-HSKFWW-NH2; configuration not given here) are more than 50.1 µM and more than 50.1 µM. The corresponding values for `CCOC(=O)c1cn(CC)c2ccc3c(c2c1=O)S(=O)(=O)C=C3` are more than 200 µM and 29.5 µM. The corresponding values for `NS(=O)(=O)c1nnc(NS(=O)(=O)c2ccccc2C(=O)O)s1` are more than 200 µM and more than 200 µM. For the molecule `Cc1cc(Cl)cc2c1NC(=O)C2(O)CC(=O)c1ccc(Br)cc1` (stereo not drawn), the EC50 is more than 91.2 µM and the IC50 is 70.8 µM. In the same order, the values of `CCCCN(CC)CC(C(C)=O)c1c(O)c2ccccc2oc1=O` (stereo not drawn) are more than 70.8 µM and more than 70.8 µM.

As for `O=S(OC12CC3CC(CC(C3)C1)C2)c1cc(Cl)cc(Cl)c1OCc1ccccc1` (stereo not drawn), the outcome was inactive. For `COc1c(OC)c(C2(O)C(=O)N(C)c3ccccc32)c2c(c1C1(O)C(=O)N(C)c3ccccc31)OCO2` (stereo not drawn), the EC50 is more than 200 µM and the IC50 was more than 200 µM. As for `O=C1CSCc2sccc21`, the EC50 is more than 200 µM and the IC50 is more than 200 µM. As for `N#C/C(=C\c1cccc(C#N)c1)C(=O)c1ccccc1`, the EC50 was more than 115 µM and the half-maximal inhibitory concentration (IC50) turned out to be 15.8 µM. In the same order, the values of `O=c1c2ccccc2c(=O)c2c1c1c(=O)c3ccccc3c(=O)c1c1c(=O)c3ccccc3c(=O)c21` are more than 200 µM and more than 200 µM. Regarding `COc1ccc(CC(=O)C2C(=O)N(C)c3ccccc32)cc1OC` (stereo not drawn), the EC50 is more than 200 µM and the IC50 turned out to be 44.7 µM. In the same order, the values of `NS(=O)(=O)c1cc2c(cc1Cl)NC(C(=O)NNC(=O)c1ccncc1)=NS2(=O)=O` are more than 77.6 µM and more than 77.6 µM.

Turning to `COC(=O)CNC(=O)c1cc(C)cc2c1Oc1c(cc(C)cc1C(=O)NCC(=O)OC)S2`, the EC50 was more than 200 µM and the IC50 is more than 200 µM. Consider `CCSSC12CCCN1C(=O)C(C)N(C)C2=O` (stereo not drawn), for which the EC50 was more than 200 µM and the IC50 turned out to be 20.4 µM. In the same order, the values of `Clc1ccc(C(SCc2ccccc2)SCc2ccccc2)cc1` are more than 200 µM and more than 200 µM. The corresponding values for `CN1c2ccccc2N(C)P1(=S)c1ccccc1` are more than 200 µM and 26.9 µM. The corresponding values for `CN(C)c1ccc2cc3ccc(N(C)C)cc3nc2c1` are more than 200 µM and 0.309 µM. In the case of `COc1c(OC(C)C)c(OC(C)C)c2oc(=O)n3c2c1C(c1ccccc1-n1c(C)ccc1C)C=C3` (stereo not drawn), the EC50 was more than 200 µM and the IC50 was more than 200 µM. In the case of `CC(=O)CN(Cc1cc(C)c2c(c1)c1ccccc1n2Cc1ccccc1)S(=O)(=O)c1ccc(C)cc1`, the EC50 was more than 19.5 µM and the IC50 is more than 19.5 µM. With `S=c1nc(Oc2ccc(Cl)c(Cl)c2)[nH]c(=S)[nH]1`, the EC50 is more than 23.4 µM and the half-inhibitory concentration (IC50) was more than 23.4 µM. Regarding `Cc1nc2ccccc2c(C(=O)NO)[n+]1[O-]`, the EC50 was more than 200 µM and the IC50 was more than 200 µM. With `C=CC(=O)Nc1ccccc1CC(c1c[nH]c2ccccc12)c1c[nH]c2ccccc12`, the EC50 is more than 36.3 µM and the IC50 turned out to be 25.7 µM.
